Results: PubChem BioAssay (NCI)
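Grown in 96-well plates, cells were treated for 48 hours with each compound at five concentrations. Insufficient inhibition: endpoint recorded as highest concentration tested. TGI: total growth inhibition.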

Experiments:
Test in all cases: DTP human tumour cell line panel, 48 h
786-0 renal = test system: 786-0 renal
A498 renal = test system: A498 renal
A549 NSCLC = test system: A549 NSCLC
ACHN renal = test system: ACHN renal
BT-549 breast = test system: BT-549 breast
CAKI-1 renal = test system: CAKI-1 renal
CCRF-CEM leukemia = test system: CCRF-CEM leukemia
COLO 205 colon = test system: COLO 205 colon
DU-145 prostate = test system: DU-145 prostate
EKVX NSCLC = test system: EKVX NSCLC
HCC-2998 colon = test system: HCC-2998 colon
HCT-116 colon = test system: HCT-116 colon
HCT-15 colon = test system: HCT-15 colon
HL-60(TB) leukemia = test system: HL-60(TB) leukemia
HOP-62 NSCLC = test system: HOP-62 NSCLC
HOP-92 NSCLC = test system: HOP-92 NSCLC
HS 578T breast = test system: HS 578T breast
HT29 colon = test system: HT29 colon
IGROV1 ovarian = test system: IGROV1 ovarian
K-562 leukemia = test system: K-562 leukemia
KM12 colon = test system: KM12 colon
LOX IMVI melanoma = test system: LOX IMVI melanoma
M14 melanoma = test system: M14 melanoma
MALME-3M melanoma = test system: MALME-3M melanoma
MCF7 breast = test system: MCF7 breast
MDA-MB-231 breast = test system: MDA-MB-231 breast
MDA-MB-435 = test system: MDA-MB-435
MOLT-4 leukemia = test system: MOLT-4 leukemia
NCI-H226 lung = test system: NCI-H226 lung
NCI-H23 lung = test system: NCI-H23 lung
NCI-H460 lung = test system: NCI-H460 lung
NCI/ADR-RES ovarian = test system: NCI/ADR-RES ovarian
OVCAR-3 ovarian = test system: OVCAR-3 ovarian
OVCAR-4 ovarian = test system: OVCAR-4 ovarian
OVCAR-5 ovarian = test system: OVCAR-5 ovarian
OVCAR-8 ovarian = test system: OVCAR-8 ovarian
PC-3 prostate = test system: PC-3 prostate
RPMI-8226 leukemia = test system: RPMI-8226 leukemia
RXF 393 renal = test system: RXF 393 renal
SF-268 CNS = test system: SF-268 CNS
SF-295 CNS = test system: SF-295 CNS
SF-539 CNS = test system: SF-539 CNS
SK-MEL-2 melanoma = test system: SK-MEL-2 melanoma
SK-MEL-28 melanoma = test system: SK-MEL-28 melanoma
SK-MEL-5 melanoma = test system: SK-MEL-5 melanoma
SK-OV-3 ovarian = test system: SK-OV-3 ovarian
SNB-19 CNS = test system: SNB-19 CNS
SNB-75 CNS = test system: SNB-75 CNS
SW-620 colon = test system: SW-620 colon
T-47D breast = test system: T-47D breast
TK-10 renal = test system: TK-10 renal
U251 CNS = test system: U251 CNS
UACC-257 melanoma = test system: UACC-257 melanoma
UACC-62 melanoma = test system: UACC-62 melanoma
UO-31 renal = test system: UO-31 renal

In the case of `O=S(=O)(c1ccccc1)n1c(C(O)c2ccccc2)cc2ccccc21` (stereo not given), the TGI (786-0 renal) is reported as 29.6 µM, the TGI (A498 renal) is reported as 26.5 µM and the TGI (A549 NSCLC) is reported as 35.3 µM. For the same molecule, the TGI (ACHN renal) was 29.1 µM, the TGI (BT-549 breast) was 32.2 µM and the TGI (CAKI-1 renal) was 47.3 µM. For the same molecule, the TGI (CCRF-CEM leukemia) was 28.9 µM, the TGI (COLO 205 colon) was 45.5 µM and the TGI (DU-145 prostate) was > 100 µM. For the same molecule, the TGI (EKVX NSCLC) was 41.6 µM, the TGI (HCC-2998 colon) was 33.2 µM and the TGI (HCT-116 colon) was 34.6 µM. It also gave a TGI (HCT-15 colon) of 61.3 µM, a TGI (HL-60(TB) leukemia) of 34.9 µM and a TGI (HOP-62 NSCLC) of 31.8 µM. The TGI (HOP-92 NSCLC) was 38.4 µM, the TGI (HS 578T breast) was 27.9 µM and the TGI (HT29 colon) was 26.2 µM. The TGI (IGROV1 ovarian) was 35.4 µM, the TGI (K-562 leukemia) was > 100 µM and the TGI (KM12 colon) was 30.3 µM. The TGI (LOX IMVI melanoma) was > 100 µM, the TGI (M14 melanoma) was 28.1 µM and the TGI (MALME-3M melanoma) was 39.2 µM. For the same molecule, the TGI (MCF7 breast) was 40.9 µM, the TGI (MDA-MB-231 breast) was 49.2 µM and the TGI (MDA-MB-435) was 36.4 µM. The TGI (MOLT-4 leukemia) was > 100 µM, the TGI (NCI-H226 lung) was 29.3 µM and the TGI (NCI-H23 lung) was 41.9 µM. For the same molecule, the TGI (NCI-H460 lung) was > 100 µM, the TGI (NCI/ADR-RES ovarian) was 30.3 µM and the TGI (OVCAR-3 ovarian) was 30.3 µM. It also gave a TGI (OVCAR-4 ovarian) of 50.2 µM, a TGI (OVCAR-5 ovarian) of 30.9 µM and a TGI (OVCAR-8 ovarian) of 49.9 µM. For the same molecule, the TGI (PC-3 prostate) was 30.2 µM, the TGI (RPMI-8226 leukemia) was > 100 µM and the TGI (RXF 393 renal) was 30.5 µM. For the same molecule, the TGI (SF-268 CNS) was 38.5 µM, the TGI (SF-295 CNS) was 32.2 µM and the TGI (SF-539 CNS) was 30.8 µM. The TGI (SK-MEL-2 melanoma) was 31.3 µM, the TGI (SK-MEL-28 melanoma) was 39.9 µM and the TGI (SK-MEL-5 melanoma) was 32.4 µM. The TGI (SK-OV-3 ovarian) was 29 µM, the TGI (SNB-19 CNS) was 26.7 µM and the TGI (SNB-75 CNS) was 35.7 µM. It also gave a TGI (SW-620 colon) of 64.7 µM, a TGI (T-47D breast) of 65.8 µM and a TGI (TK-10 renal) of 33.6 µM. For the same molecule, the TGI (U251 CNS) was 43.7 µM, the TGI (UACC-257 melanoma) was 34.4 µM and the TGI (UACC-62 melanoma) was 28 µM. The TGI (UO-31 renal) was 24 µM.
